From patent US11534457B2, “Use of dextran sulfate” (priority 2017, dated 2022)

System: severe traumatic brain injury (sTBI)
Assay: sTBI in rats, brain gene expression arrays and pathway analysis (Example 9)
Type: in vivo, Male Wistar rats
Settings: 2 days after TBI
Protocol: The experimental protocol used in this study was approved by the Ethical Committee of the Catholic University of Rome, according to international standards and guidelines for animal care. Male Wistar rats of 300-350 g body weight were fed with standard laboratory diet and water ad libitum in a controlled environment. As the anesthetic mixture, the animals received 35 mg/kg b.w. ketamine and 0.25 mg/kg body weight midazolam by i.p. injection. Severe traumatic brain injury (sTBI) was induced by dropping a 450 g weight from 2 m height on to the rat head that had been protected by a metal disk previously fixed on the skull, according to the “weight drop” impact acceleration model (Marmarou et al., A new model of diffuse brain injury in rats. Part I: Pathophysiology and biomechanics. J Neurosurg. 1994; 80: 291-300). […] At the end of each period of treatment, rats were anesthetized again and then immediately sacrificed.
LMW-DS (Tikomed AB) was provided at a stock concentration of 20 mg/ml and was kept in a temperature-monitored refrigerator at 4° C. LMW-DS aliquots were diluted to the appropriate dosing concentration in sterile saline prior to delivery of a single subcutaneous injection.
Three doses of LMW-DS were administered subcutaneously 30 minutes post-TBI. The animals were sacrificed at 2 days post-TBI. The animals were divided into the following subgroups:
Three doses of LMW-DS were administered subcutaneously 30 minutes post-TBI. The animals were sacrificed at 7 days post-TBI. The animals were divided into the following subgroups:
An in vivo craniectomy was performed on all animals during anesthesia. After carefully removing the rat's skull, the brain was exposed and removed with a surgical spatula and quickly dropped in RNALater and preserved at 4° C. for further processing.
RNA extraction and array processing was carried out by SourceBioscience. The arrays used were the Agilent Rat expression arrays.
Statistical analysis was carried out using the Metaboanalyst software package. Gene expression changes of 10% with a p<0.05 were regarded as significant.
Pathway analysis of the differentially regulated genes was carried out using the Ingenuity pathway analysis package. The analysis was performed with special reference to pathways and molecular processes and diseases associated with neurodegenerative disease, including dementia, Alzheimer's disease, ALS, TBI and stroke, and with scarring and fibrosis, including glaucoma and normal pressure hydrocephalus (NPH) after subarachnoid haemorrhage.

[1] = TBI + 5 mg/kg LMW-DS, relative to control

low molecular weight dextran sulfate [LMW-DS]
effect on canonical pathway Adrenomedullin Signaling pathway (TBI + 5 mg/kg LMW-DS): Inhibited | effect on canonical pathway NF-κ13 Signaling (TBI + 5 mg/kg LMW-DS): Inhibited | effect on canonical pathway Osteoarthritis Pathway (TBI + 5 mg/kg LMW-DS): Inhibited | effect on canonical pathway Role of NFAT in Cardiac Hypertrophy (TBI + 5 mg/kg LMW-DS): Inhibited | z score, Abdominal cancer (TBI + 5 mg/kg LMW-DS): −2.553 | z score, Abdominal carcinoma (TBI + 5 mg/kg LMW-DS): −2.631 | z score, Abdominal neoplasm (TBI + 5 mg/kg LMW-DS): −0.927 | z score, Apoptosis (TBI + 5 mg/kg LMW-DS): 0.601 | z score, Behavior (TBI + 5 mg/kg LMW-DS): −2.009 | z score, Carcinoma (TBI + 5 mg/kg LMW-DS): −2.071 | z score, Cell death (TBI + 5 mg/kg LMW-DS): 0.051 | z score, Cell death of antigen presenting cells (TBI + 5 mg/kg LMW-DS): −0.62 | z score, Cell death of immune cells (TBI + 5 mg/kg LMW-DS): −1 | z score, Cell death of tumor cell lines (TBI + 5 mg/kg LMW-DS): −1.947 | z score, Cell movement (TBI + 5 mg/kg LMW-DS): −3.723 | z score, Cell movement of tumor cell lines (TBI + 5 mg/kg LMW-DS): −2.078 | z score, Cell proliferation of leukocyte cell lines (TBI + 5 mg/kg LMW-DS): −2.754 | z score, Cellular homeostasis (TBI + 5 mg/kg LMW-DS): −3.19 | z score, Chemotaxis (TBI + 5 mg/kg LMW-DS): −3.642 | z score, Development of vasculature (TBI + 5 mg/kg LMW-DS): −1.534 | z score, Digestive organ tumor (TBI + 5 mg/kg LMW-DS): −1.149 | z score, Digestive system cancer (TBI + 5 mg/kg LMW-DS): −2.221 | z score, Edema (TBI + 5 mg/kg LMW-DS): 3.386 | z score, Epithelial neoplasm (TBI + 5 mg/kg LMW-DS): −1.393 | z score, Extracranial solid tumor (TBI + 5 mg/kg LMW-DS): −0.992 | z score, Feeding (TBI + 5 mg/kg LMW-DS): −0.895 | z score, Growth of tumor (TBI + 5 mg/kg LMW-DS): −1.233 | z score, Hematologic cancer (TBI + 5 mg/kg LMW-DS): −1.067 | z score, Incidence of tumor (TBI + 5 mg/kg LMW-DS): −0.731 | z score, Leukocyte migration (TBI + 5 mg/kg LMW-DS): −2.163 | z score, Leukopoiesis (TBI + 5 mg/kg LMW-DS): −3.549 | z score, Lymphocyte homeostasis (TBI + 5 mg/kg LMW-DS): −2.94 | z score, Lymphocytic cancer (TBI + 5 mg/kg LMW-DS): −0.48 | z score, Lymphocytic neoplasm (TBI + 5 mg/kg LMW-DS): −0.48 | z score, Lymphopoiesis (TBI + 5 mg/kg LMW-DS): −3.105 | z score, Lymphoproliferative disorder (TBI + 5 mg/kg LMW-DS): −0.48 | z score, Malignant solid tumor (TBI + 5 mg/kg LMW-DS): −1.492 | z score, Metabolism of hormone (TBI + 5 mg/kg LMW-DS): −1.632 | z score, Migration of cells (TBI + 5 mg/kg LMW-DS): −3.087 | z score, Necrosis (TBI + 5 mg/kg LMW-DS): −1.503 | z score, Neoplasia of leukocytes (TBI + 5 mg/kg LMW-DS): −0.48 | z score, Non-melanoma solid tumor (TBI + 5 mg/kg LMW-DS): −1.249 | z score, Proliferation of hematopoietic progenitor cells (TBI + 5 mg/kg LMW-DS): −2.951 | z score, Quantity of cells (TBI + 5 mg/kg LMW-DS): −3.092 | z score, Quantity of epithelial tissue (TBI + 5 mg/kg LMW-DS): −0.028 | z score, Quantity of neuroglia (TBI + 5 mg/kg LMW-DS): −1.446 | z score, Resorption of bone (TBI + 5 mg/kg LMW-DS): −0.478 | z score, Secretion of molecule (TBI + 5 mg/kg LMW-DS): 1.634 | z score, Synthesis of hormone (TBI + 5 mg/kg LMW-DS): −1.632 | z score, Transport of molecule (TBI + 5 mg/kg LMW-DS): 0.248 | z score, Vasculogenesis (TBI + 5 mg/kg LMW-DS): −2.274 | z score, canonical pathway Adrenomedullin Signaling pathway [1]: −2.236 | z score, canonical pathway NF-κb Signaling [1]: −2 | z score, canonical pathway Osteoarthritis Pathway [1]: −2.646 | z score, canonical pathway Role of NFAT in Cardiac Hypertrophy [1]: −1.63 | z score, Apoptosis (TBI + 15 mg/kg LMW-DS): −0.502 | z score, Apoptosis of tumor cell lines (TBI + 15 mg/kg LMW-DS): 0.09 | z score, Behavior (TBI + 15 mg/kg LMW-DS): −0.139 | z score, Cell death (TBI + 15 mg/kg LMW-DS): −0.141 | z score, Necrosis (TBI + 15 mg/kg LMW-DS): −0.477 | z score, Quantity of blood cells (TBI + 15 mg/kg LMW-DS): −0.34 | z score, Quantity of cells (TBI + 15 mg/kg LMW-DS): −0.797 | z score, Quantity of lymphocytes (TBI + 15 mg/kg LMW-DS): −0.943 | Diseases or functions annotation: Abdominal cancer (TBI + 1 mg/kg LMW-DS): Inhibited | Diseases or functions annotation: Abdominal carcinoma (TBI + 1 mg/kg LMW-DS): Inhibited | Diseases or functions annotation: Abdominal neoplasm (TBI + 1 mg/kg LMW-DS): Inhibited | Diseases or functions annotation: Activation of blood cells (TBI + 1 mg/kg LMW-DS): Activated | Diseases or functions annotation: Activation of cells (TBI + 1 mg/kg LMW-DS): Activated | Diseases or functions annotation: Activation of leukocytes (TBI + 1 mg/kg LMW-DS): Activated | Diseases or functions annotation: Activation of lymphocytes (TBI + 1 mg/kg LMW-DS): Inhibited | Diseases or functions annotation: Adhesion of tumor cell lines (TBI + 1 mg/kg LMW-DS): Activated | Diseases or functions annotation: Apoptosis (TBI + 1 mg/kg LMW-DS): Inhibited | Diseases or functions annotation: Apoptosis of muscle cells (TBI + 1 mg/kg LMW-DS): Activated | Diseases or functions annotation: Behavior (TBI + 1 mg/kg LMW-DS): Activated | Diseases or functions annotation: Binding of tumor cell lines (TBI + 1 mg/kg LMW-DS): Activated | Diseases or functions annotation: Carcinoma (TBI + 1 mg/kg LMW-DS): Inhibited | Diseases or functions annotation: Cell death (TBI + 1 mg/kg LMW-DS): Inhibited | Diseases or functions annotation: Cell death of blood cells (TBI + 1 mg/kg LMW-DS): Activated | Diseases or functions annotation: Cell death of immune cells (TBI + 1 mg/kg LMW-DS): Activated | Diseases or functions annotation: Cell movement (TBI + 1 mg/kg LMW-DS): Activated | Diseases or functions annotation: Cell movement of muscle cells (TBI + 1 mg/kg LMW-DS): Inhibited | Diseases or functions annotation: Cell movement of vascular smooth muscle cells (TBI + 1 mg/kg LMW-DS): Inhibited | Diseases or functions annotation: Cell proliferation of T lymphocytes (TBI + 1 mg/kg LMW-DS): Inhibited | Diseases or functions annotation: Cellular homeostasis (TBI + 1 mg/kg LMW-DS): Activated | Diseases or functions annotation: Development of connective tissue cells (TBI + 1 mg/kg LMW-DS): Inhibited | Diseases or functions annotation: Differentiation of bone cells (TBI + 1 mg/kg LMW-DS): Inhibited | Diseases or functions annotation: Differentiation of connective tissue cells (TBI + 1 mg/kg LMW-DS): Activated | Diseases or functions annotation: Differentiation of hematopoietic progenitor cells (TBI + 1 mg/kg LMW-DS): Activated | Diseases or functions annotation: Differentiation of osteoclasts (TBI + 1 mg/kg LMW-DS): Inhibited | Diseases or functions annotation: Digestive organ tumor (TBI + 1 mg/kg LMW-DS): Inhibited | Diseases or functions annotation: Experimentally-induced arthritis (TBI + 1 mg/kg LMW-DS): Inhibited | Diseases or functions annotation: Extracranial solid tumor (TBI + 1 mg/kg LMW-DS): Activated | Diseases or functions annotation: Genital tumor (TBI + 1 mg/kg LMW-DS): Activated | Diseases or functions annotation: Incidence of tumor (TBI + 1 mg/kg LMW-DS): Inhibited | Diseases or functions annotation: Inflammation of absolute anatomical region (TBI + 1 mg/kg LMW-DS): Inhibited | Diseases or functions annotation: Inflammation of body cavity (TBI + 1 mg/kg LMW-DS): Inhibited | Diseases or functions annotation: Inflammation of joint (TBI + 1 mg/kg LMW-DS): Inhibited | Diseases or functions annotation: Inflammation of organ (TBI + 1 mg/kg LMW-DS): Inhibited | Diseases or functions annotation: Inflammatory response (TBI + 1 mg/kg LMW-DS): Activated | Diseases or functions annotation: Interaction of mononuclear leukocytes (TBI + 1 mg/kg LMW-DS): Activated | Diseases or functions annotation: Leukocyte migration (TBI + 1 mg/kg LMW-DS): Activated | Diseases or functions annotation: Leukopoiesis (TBI + 1 mg/kg LMW-DS): Activated | Diseases or functions annotation: Lymphopoiesis (TBI + 1 mg/kg LMW-DS): Activated | Diseases or functions annotation: Malignant solid tumor (TBI + 1 mg/kg LMW-DS): Inhibited
